Test results taken from the NIST ThermoML archive (doi:10.1016/j.jct.2013.09.020).
Numbers after ± are expanded uncertainties.

Settings: Liquid, Calculated from knudsen effusion weight loss

For `CCC[n+]1ccn(CC)c1.O=S(=O)([N-]S(=O)(=O)C(F)(F)F)C(F)(F)F`, which “vapor or sublimation pressure” value (463.58 K) is on record?
The value was 4.86e-05 ± 3.6e-06 kPa.

And the “vapor or sublimation pressure” value (465.61 K)?
The value was 5.55e-05 ± 3.7e-06 kPa.

What about the “vapor or sublimation pressure” value (467.59 K) of the same molecule?
The value was 6.29e-05 ± 3.9e-06 kPa.

What about the “vapor or sublimation pressure” value (469.6 K) of the same molecule?
Its value is 7.12e-05 ± 4.4e-06 kPa.

And the “vapor or sublimation pressure” value (471.62 K)?
Its value is 8.07e-05 ± 5e-06 kPa.

And the “vapor or sublimation pressure” value (473.62 K)?
Its value is 9.11e-05 ± 5.6e-06 kPa.

And the “vapor or sublimation pressure” value (475.62 K)?
Its value is 0.0001034 ± 6.3e-06 kPa.

And the “vapor or sublimation pressure” value (477.63 K)?
Its value is 0.0001172 ± 7.2e-06 kPa.

And the “vapor or sublimation pressure” value (479.56 K)?
The value was 0.0001311 ± 8e-06 kPa.

What about the “vapor or sublimation pressure” value (481.58 K) of the same molecule?
Its value is 0.0001487 ± 9.1e-06 kPa.

And the “vapor or sublimation pressure” value (483.6 K)?
Its value is 0.0001651 ± 1e-05 kPa.

And the “vapor or sublimation pressure” value (485.61 K)?
Its value is 0.0001872 ± 1.2e-05 kPa.

What about the “vapor or sublimation pressure” value (487.62 K) of the same molecule?
The value was 0.0002112 ± 1.3e-05 kPa.

And the “vapor or sublimation pressure” value (489.62 K)?
Its value is 0.0002364 ± 1.5e-05 kPa.

For `Cn1cc[n+](C)c1.O=S(=O)([N-]S(=O)(=O)C(F)(F)F)C(F)(F)F` [1,3-dimethylimidazolium bis((trifluoromethyl)sulfonyl)amide], which “vapor or sublimation pressure” value (475.62 K) is on record?
Its value is 4.15e-05 ± 3.5e-06 kPa.

And the “vapor or sublimation pressure” value (477.6 K)?
The value was 4.7e-05 ± 3.6e-06 kPa.

What about the “vapor or sublimation pressure” value (479.6 K) of the same molecule?
Its value is 5.33e-05 ± 3.7e-06 kPa.

What about the “vapor or sublimation pressure” value (481.59 K) of the same molecule?
The value was 6.01e-05 ± 3.8e-06 kPa.

And the “vapor or sublimation pressure” value (483.59 K)?
The value was 6.78e-05 ± 4.2e-06 kPa.

What about the “vapor or sublimation pressure” value (485.6 K) of the same molecule?
The value was 7.63e-05 ± 4.7e-06 kPa.

What about the “vapor or sublimation pressure” value (487.6 K) of the same molecule?
The value was 8.56e-05 ± 5.3e-06 kPa.

What about the “vapor or sublimation pressure” value (489.62 K) of the same molecule?
Its value is 9.57e-05 ± 5.9e-06 kPa.

What about the “vapor or sublimation pressure” value (491.67 K) of the same molecule?
Its value is 0.0001095 ± 6.7e-06 kPa.

And the “vapor or sublimation pressure” value (493.68 K)?
The value was 0.0001225 ± 7.5e-06 kPa.
